Data on 19 compounds can be found in patent US5541163A, “Renin inhibiting N-(2-amino-2-oxoethyl)butanediamide derivatives” (Bio-Mega/Boehringer Ingelheim Research Inc., priority 1993, dated 1996).

SMILES strings stand for the structures.

This test has as its target T1, human renin (Homo sapiens, UniProt P00797).
T1 construct: A human plasma pool is used as the source of both the substrate (angiotensinogen) and the enzyme (renin); from tissue; host or cells: human plasma pool
T1 sequence (P00797 67-406): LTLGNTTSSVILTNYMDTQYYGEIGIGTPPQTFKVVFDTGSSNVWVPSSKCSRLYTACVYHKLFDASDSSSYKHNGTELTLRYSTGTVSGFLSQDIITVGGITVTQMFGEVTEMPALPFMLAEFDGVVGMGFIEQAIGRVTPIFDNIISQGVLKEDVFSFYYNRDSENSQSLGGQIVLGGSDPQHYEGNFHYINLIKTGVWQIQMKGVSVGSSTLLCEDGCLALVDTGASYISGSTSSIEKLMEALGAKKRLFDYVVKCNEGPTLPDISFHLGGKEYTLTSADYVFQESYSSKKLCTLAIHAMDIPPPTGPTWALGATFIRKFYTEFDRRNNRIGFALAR
Kind of test: Plasma renin assay (inhibition of human renin, angiotensin I by RIA). Type of test: biochemical. To be noted: human plasma pool, pH 6.0, 2 h incubation at 37°. On the procedure: The assay is performed as follows: The test compound (i.e. the inhibitor) is dissolved in dimethylsulfoxide (1 mM stock solution) and diluted with an aqueous buffer solution of 270 mM 2-(N-morpholino)ethanesulfonic acid and 1% human serum albumin (pH 5.85, also containing dimercaprol and 8-hydroxyquinoline sulfate in accordance with the instructions of the RIA kit noted below) to give an assay mixture in which the final dimethylsulfoxide content is 1% (v/v).
A human plasma pool is used as the source of both the substrate (angiotensinogen) and the enzyme (renin). The reaction is initiated by the addition of 50 μL of human plasma pool to 50 μL of various concentrations of inhibitor in the 1% dimethylsulfoxide assay buffer. The plasma renin activity is measured by the amount of angiotensin I generated at pH 6.0 following a 2 h incubation at 37°.
Quantitation of angiotensin I is performed by radioimmunoassay (RIA kit from New England Nuclear-Dupont, Mississauga, ON, Canada). The enzymatic activity of renin is expressed in ng of angiotensin I generated (/mL/2 h). The extent of inhibition of the reaction is determined from the amount of angiotensin I generated in reference to a control prepared without inhibitor. Nonlinear regression analysis is used to calculate the IC50 values, i.e. the molar concentration of the test compound required to cause a 50% inhibition of the enzyme activity.
Turning to `CC(C)C[C@H](O)[C@H](O)[C@H](CC1CCCCC1)NC(=O)[C@@H](CC(=O)N(CC(=O)N(C)C)[C@@H](C)C1CCCCC1)CC1CC1` [Compound 38, N^4-(1(S)-cyclohexylethyl)-N^4-[2-(dimethylamino)-2-oxoethyl]-N^1-[1(S)-(cyclohexylmethyl)-2(R),3(S)-dihydroxy-5-methylhexyl]-2(R)-(cyclopropylmethyl)butanediamide], the midpoint of inhibition, the IC50, lay at 8.3 nM. This counts as single-digit nanomolar. On to `CC(C)C[C@H](O)[C@H](O)[C@H](CC1CCCCC1)NC(=O)[C@@H](CC(=O)N(CC(=O)N1CCOCC1)CC1CCCCC1)Cc1nccs1` [Compound 39, N^4-(cyclohexylmethyl)-N^4-(2-morpholino-2-oxoethyl)-N^1-[1(S)-(cyclohexylmethyl)-2(R),3(S)-dihydroxy-5-methylhexyl]-2(S)-(2-thiazolylmethyl)butanediamide], for which the IC50 amounted to 1.6 nM. With `CC(C)C[C@H](O)[C@H](O)[C@H](CC1CCCCC1)NC(=O)[C@@H](CC(=O)N(CC(=O)N(C)C)C[C@@H](C)c1ccccc1)Cc1nccs1` [Compound 40, N^4-[2-(dimethylamino)-2-oxoethyl]-N^4-[2 (S)-phenylpropyl]-N^1-[1(S)-(cyclohexylmethyl)-2(R),3(S)-dihydroxy-5-methylhexyl]-2(S)-(2-thiazolylmethyl)butanediamide], the IC50 turned out to be 6.7 nM. Compared with the last compound, the IC50 is about 4.2-fold higher. In turn, `CC(C)C[C@H](O)[C@H](O)[C@H](CC1CCCCC1)NC(=O)[C@@H](CC(=O)N(CC(=O)N(C)CCc1ccccn1)Cc1ccccc1)Cc1nccs1` [Compound 41, N^4-benzyl-N^4 -{2-{methyl[2-(2-pyridinyl)ethyl]amino}-2-oxoethyl}-N^1-[1(S)-(cyclohexylmethyl)-2(R),3(S)-dihydroxy-5-methylhexyl]-2(S)-(2-thiazolylmethyl)butanediamide] had an IC50 of 3.5 nM. Compared with the last compound, the IC50 is about 1.9-fold lower. Consider `C[C@@H](c1ccccc1)N(CC(=O)N(C)C)C(=O)C[C@@H](CC1CC1)C(=O)N[C@@H](CC1CCCCC1)[C@@H](O)[C@@H]1CC(C)(C)N(C)C1=O` [Compound 42, N^4-[2-(dimethylamino)-2-oxoethyl]-N^4-[1(S)-phenylethyl]-N^1-[1(S)-(cyclohexylmethyl)-2(S)-hydroxy-2-(1,5,5-trimethyl-2-oxopyrrolidin-3(S)-yl)ethyl]-2(R)-(cyclopropylmethyl)butanediamide], for which the midpoint of inhibition, the IC50, lay at 55 nM. Turning to `C[C@@H](c1ccccc1)N(CC(=O)N(C)C)C(=O)C[C@@H](Cc1csc(N)n1)C(=O)N[C@@H](CC1CCCCC1)[C@@H](O)[C@@H](O)C1CC1` [Compound 43, N^4-[2-(dimethylamino)-2-oxoethyl]-N^4-[1(S)-phenylethyl]-N^1-[1(S)-(cyclohexylmethyl)-2(R),3(S)-dihydroxy-(3-cyclopropylpropyl)]-2(R)-[(2-amino-4-thiazolyl)methyl]-butanediamide], the IC50 was 6.8 nM. The same measure for `C[C@@H](c1ccccc1)N(CC(=O)N(C)C)C(=O)C[C@@H](Cc1csc(N)n1)C(=O)N[C@@H](CC1CCCCC1)[C@@H](O)[C@@H]1CC(C)(C)N(C)C1=O` [Compound 44, N^4-[2-(dimethylamino)-2-oxoethyl]-N^4-[1(S)-phenylethyl]-N^1-[1(S)-(cyclohexylmethyl)-2(S)-hydroxy-2-(1,5,,5-trimethyl-2-oxopyrrolidin-3(S)-yl)ethyl]-2(R)-[(2-amino-4-thiazolyl)methyl]butanediamide]: 2.4 nM; for `CC(C)OC(=O)[C@H](O)[C@H](CC1CCCCC1)NC(=O)[C@@H](CC(=O)N(CC(=O)N(C)C)[C@@H](C)c1ccccc1)Cc1csc(N)n1` [Compound 45, N^4-[2-(dimethylamino)-2-oxoethyl]-N^4-[1(S)-phenylethyl]-N^4-[1(S)-(cyclohexylmethyl)-2(R)-hydroxy-3-(1-methylethoxy)-3-oxopropyl]-2(R)-[(2-amino-4-thiazolyl)methyl]-butanediamide]: 16 nM; for `CC(C)C[C@H](O)[C@H](O)[C@H](CC1CCCCC1)NC(=O)[C@@H](CC(=O)N(CC(=O)N(C)CCc1ccccn1)CC1CCCCC1)CC1CC1` [Compound 46, N^4-(cyclohexylmethyl)-N^4 -{2-{methyl-[2-(2-pyridinyl)-ethyl]amino}-2-oxoethyl}-N^1-[1(S)-(cyclohexylmethyl)-2(R),3(S)-dihydroxy-5-methylhexyl]-2(R)-(cyclopropylmethyl)butanediamide]: 12 nM. The compound `Cc1nc(C[C@H](CC(=O)N(CC(=O)N(C)C)CC2CCCCC2)C(=O)N[C@@H](CC2CCCCC2)[C@@H](O)[C@@H](O)CC(C)C)cs1` [Compound 47, N^4-(cyclohexylmethyl)-N^4-[2-(dimethylamino)-2-oxoethyl]-N^1-[1(S)-(cyclohexylmethyl)-2(R),3(S)-dihydroxy-5-methylhexyl]-2(R)-[(2-methyl-4-thiazolyl)methyl]butanediamide] returned an IC50 of 18.5 nM. Regarding `CC(C)C[C@H](O)[C@H](O)[C@H](CC1CCCCC1)NC(=O)[C@@H](CC(=O)N(CC(=O)N(C)C)CC1CCCCC1)Cc1csc(N)n1` [Compound 48, N^4-(cyclohexylmethyl)-N^4-[2-(dimethylamino)-2-oxoethyl]-N^1-[1(S)-(cyclohexylmethyl)-2(R),3(S)-dihydroxy-5-methylhexyl]-2(R)-[(2-amino-4-thiazolyl)methyl]butanediamide], half-maximal inhibition (IC50) required 0.9 nM. Next, `CC(C)C[C@H](O)[C@H](O)[C@H](CC1CCCCC1)NC(=O)[C@@H](CC(=O)N(CC(=O)N1CCOCC1)CC1CCCCC1)Cc1csc(N)n1` [Compound 49]: 1.5 nM; `CC(C)C[C@H](O)[C@H](O)[C@H](CC1CCCCC1)NC(=O)[C@@H](CC(=O)N(CC(=O)N(C)CCc1ccccn1)CC1CCCCC1)Cc1csc(N)n1` [Compound 50, N^4-(cyclohexylmethyl)-N^4 -{2-{methyl-[2-(2-pyridinyl)ethyl]-amino}-2-oxoethyl}-N^1-[1(S)-(cyclohexylmethyl)-2(R),3(S)-dihydroxy-5-methylhexyl]-2(R)-[(2-amino-4-thiazolyl)methyl]butanediamide]: 2.2 nM. For `CC(C)C[C@H](O)[C@H](O)[C@H](CC1CCCCC1)NC(=O)[C@@H](CC(=O)N(CCc1ccccn1)CC(=O)N(C)C)CC1CC1` [Compound 51, N^4-[2-(dimethylamino)-2-oxoethyl]-N^4-[2-(2-pyridinyl)ethyl]-N^1-(1(S)-(cyclohexylmethyl)-2(R),3(S)-dihydroxy-5-methylhexyl]-2(R)-(cyclopropylmethyl)butanediamide], 145 nM corresponded to half-maximal inhibition (IC50). On to `CC(C)C[C@H](O)[C@H](O)[C@H](CC1CCCCC1)NC(=O)[C@@H](CC(=O)N(CC(=O)N(C)C)Cc1ccccc1)Cc1csc(N)n1` [Compound 52, N^4-benzyl-N^1-[2-(dimethylamino)-2-oxoethyl)-N^1-[1(S)-(cyclohexylmethyl)-2(R),3(S)-dihydroxy-5-methylhexyl]-2(R)-[(2-amino-4-thiazolyl)-methyl]butanediamide], for which the IC50 was 3 nM. The same measure for `CC(C)C[C@H](O)[C@H](O)[C@H](CC1CCCCC1)NC(=O)[C@@H](CC(=O)N(CC(=O)N(C)CCc1ccccn1)Cc1ccccc1)Cc1cscn1` [Compound 53, N^4-benzyl-N^4 -{2-{methyl[2-(2-pyridinyl)ethyl]amino}-2-oxoethyl}-N^1-[1(S)-(cyclohexylmethyl)-2(R),3(S)-dihydroxy-5-methylhexyl]-2(R)-(4-thiazolylmethyl)butanediamide]: 2.5 nM; for `CC(C)C[C@H](O)[C@H](O)[C@H](CC1CCCCC1)NC(=O)[C@@H](CC(=O)N(CC(=O)N(C)C)[C@@H](C)c1ccccc1)Cc1nccs1` [Compound 54, N^4-[2-(dimethylamino)-2-oxoethyl]-N^4-[1(S)-phenylethyl]-N^1-[1(S)-(cyclohexylmethyl)-2(R),3(S)-dihydroxy-5-methylhexyl]-2(S)-(2-thiazolylmethyl)butanediamide]: 4 nM; for `CC(C)C[C@H](O)[C@H](O)[C@H](CC1CCCCC1)NC(=O)[C@@H](CC(=O)N(CC(=O)N(C)C)CC1CCCCC1)Cc1ccccc1` [Compound 55, N^4-(cyclohexylmethyl)-N^4-[2-(dimethylamino)-2-oxoethyl]-N^1-[1(S)-(cyclohexylmethyl)-2(R),3(S)-dihydroxy-5-methylhexyl]-2(R)-(phenylmethyl)butanediamide]: 16 nM. The same measure for `CC(C)C[C@H](O)[C@H](O)[C@H](CC1CCCCC1)NC(=O)[C@@H](CC(=O)N(CC(=O)N(C)CCc1ccccn1)Cc1ccccc1)Cc1csc(N)n1` [Compound 57, N^4-benzyl-N^4 -{2-{methyl[2-(2-pyridinyl)ethyl]amino}-2-oxoethyl}-N^1-[1(S)-(cyclohexylmethyl)-2(R),3(S)-dihydroxy-5-methylhexyl]-2(R)-[(2-amino-4-thiazolyl)methyl]-butanediamide]: 1 nM.

Broadly, the IC50 is the concentration that gives 50% inhibition. Low values mean greater potency in that assay, high ones weaker potency in that assay.
